The target in one assay is T1, p110α Type Ia human PI3K (Homo sapiens, UniProt P42336).
T1 construct: full length DNA of each of the p110α, p110β and p110δ Type Ia human PI3K p110 isoforms; 6-His; made in house
The assay can be described thus: In vitro enzyme assay (AlphaScreen), inhibition of phosphorylation of PI(4,5)P2 by recombinant Type I PI3K. The conditions noted are these: DiC8-PI(4,5)P2 40 μM, ATP 4 μM, read-out: IC50 versus p110α Type Ia human PI3K, Test (a). Format: biochemical. The source says: (a) In Vitro Enzyme Assay
The assay used AlphaScreen technology (Gray et al., Analytical Biochemistry, 2003, 313: 234-245) to determine the ability of test compounds to inhibit phosphorylation by recombinant Type I PI3K enzymes of the lipid PI(4,5)P2.
DNA fragments encoding human PI3K catalytic and regulatory subunits were isolated from cDNA libraries using standard molecular biology and PCR cloning techniques. The selected DNA fragments were used to generate baculovirus expression vectors. In particular, full length DNA of each of the p110α, p110β and p110δ Type Ia human PI3K p110 isoforms (EMBL Accession Nos. HSU79143, S67334, Y10055 for p110α, p110β and p110δ respectively) were sub-cloned into a pDEST10 vector (Invitrogen Limited, Fountain drive, Paisley, UK). The vector is a Gateway-adapted version of Fastbac1 containing a 6-His epitope tag. A truncated form of Type Ib human PI3K p110γ isoform corresponding to amino acid residues 144-1102 (EMBL Accession No. X8336A) and the full length human p85α regulatory subunit (EMBL Accession No. HSP13KIN) were also sub-cloned into pFastBac1 vector containing a 6-His epitope tag. The Type Ia p110 constructs were co-expressed with the p85α regulatory subunit. Following expression in the baculovirus system using standard baculovirus expression techniques, expressed proteins were purified using the His epitope tag using standard purification techniques.
DNA corresponding to amino acids 263 to 380 of human Grp1 PH domain was isolated from a cDNA library using standard molecular biology and PCR cloning techniques. […]
Biotinylated-DiC8-PI(3,4,5)P3 (50 nM; Cell Signals Inc., Catalogue No. 107), recombinant purified GST-Grp1 PH protein (2.5 nM) and AlphaScreen Anti-GST donor and acceptor beads (100 ng; Packard Bioscience Limited, Station Road, Pangbourne, Berkshire, UK, Catalogue No. 6760603M) were added and the assay plates were left for about 5 to 20 hours at ambient temperature in the dark. The resultant signals arising from laser light excitation at 680 nm were read using a Packard AlphaQuest instrument. […]
Background: Bead proximity is the source of the signal in Alpha formats.

Assay [1] deals with phosphorylation of Serine 473 in Akt. The assay can be described thus: In vitro phospho-Ser473 Akt assay in MDA-MB-468 cells. It is filed as cell-based. The settings on record: Homo sapiens, 2 hours incubation, read-out: IC50, Test (b), inhibition of phosphorylation of Serine 473 in Akt. As for the experimental part:
(b) In Vitro phospho-Ser473 Akt Assay
This assay determines the ability of test compounds to inhibit phosphorylation of Serine 473 in Akt as assessed using Acumen Explorer technology (Acumen Bioscience Limited), a plate reader that can be used to rapidly quantitate features of images generated by laser-scanning.
A MDA-MB-468 human breast adenocarcinoma cell line (LGC Promochem, Teddington, Middlesex, UK, Catalogue No. HTB-132) was routinely maintained at 37° C. with 5% CO2 up to a confluency of 70-90% in Dulbecco's modified Eagle's growth medium (DMEM; Invitrogen Limited, Paisley, UK Catalogue No. 41966-029) containing 10% heat-inactivated foetal calf serum (FCS; Sigma, Poole, Dorset, UK, Catalogue No. F0392) and 1% L-glutamine (Gibco, Catalogue No. 25030-024).
For the assay, the cells were detached from the culture flask using ‘Accutase’ (Innovative Cell Technologies Inc., San Diego, Calif., USA; Catalogue No. AT104) using standard tissue culture methods and resuspended in media to give 1.7×10^5 cells per ml. […]
All subsequent aspiration and wash steps were carried out using a Tecan 96 well plate washer (aspiration speed 10 mm/sec). […] An aliquot of PBS (50 μl) was added to each well and the plates were sealed with black plate sealers and the fluorescence signal was detected and analysed. […]

The subject of assay [2] is MDA-MB-468 human breast adenocarcinoma cells. The assay can be described thus: In vitro MDA-MB-468 human breast adenocarcinoma proliferation assay. It is filed as cell-based. The conditions noted are these: 48 hours incubation, BrdU incorporation, read-out: IC50, Test (c), inhibition of MDA-MB-468 cell growth. From the text:
(c) In Vitro MDA-MB-468 Human Breast Adenocarcinoma Proliferation Assay
This assay determines the ability of test compounds to inhibit cell proliferation as assessed using Cellomics Arrayscan technology. A MDA-MB-468 human breast adenocarcinoma cell line (LGC Promochem, Catalogue No. HTB-132) was routinely maintained as described in Biological Assay (b) hereinbefore.
For the proliferation assay, the cells were detached from the culture flask using Accutase and seeded into the inner 60 wells of a black Packard 96 well plate at a density of 8000 cells per well in 100 μl of complete growth media. The outer wells contained 100 μl of sterile PBS. The cells were incubated overnight at 37° C. with 5% CO2 to allow them to adhere.
On day 2, the cells were treated with test compounds and incubated for 48 hours at 37° C. with 5% CO2. […]
BrdU incorporation was detected by incubation for 1 hour at ambient temperature with mouse anti-BrdU antibody (50 μl; Caltag, Burlingame, Calif., US; Catalogue No. MD5200) that was diluted 1:40 in PBS containing 1% BSA and 0.05% Tween-20. […] Subsequently, PBS (100 μl) was added to each well and the plates were analysed using a Cellomics array scan to assess total cell number and number of BrdU positive cells.
Fluorescence dose response data obtained with each compound were analysed and the degree of inhibition of MDA-MB-468 cell growth was expressed as an IC50 value.
A general note: Uptake of a labelled nucleoside into DNA is a usual measure of proliferation.

As usually defined, the IC50 is the point on the concentration scale where inhibition reaches its midpoint.

T1 sequence (P42336 whole entry, canonical isoform): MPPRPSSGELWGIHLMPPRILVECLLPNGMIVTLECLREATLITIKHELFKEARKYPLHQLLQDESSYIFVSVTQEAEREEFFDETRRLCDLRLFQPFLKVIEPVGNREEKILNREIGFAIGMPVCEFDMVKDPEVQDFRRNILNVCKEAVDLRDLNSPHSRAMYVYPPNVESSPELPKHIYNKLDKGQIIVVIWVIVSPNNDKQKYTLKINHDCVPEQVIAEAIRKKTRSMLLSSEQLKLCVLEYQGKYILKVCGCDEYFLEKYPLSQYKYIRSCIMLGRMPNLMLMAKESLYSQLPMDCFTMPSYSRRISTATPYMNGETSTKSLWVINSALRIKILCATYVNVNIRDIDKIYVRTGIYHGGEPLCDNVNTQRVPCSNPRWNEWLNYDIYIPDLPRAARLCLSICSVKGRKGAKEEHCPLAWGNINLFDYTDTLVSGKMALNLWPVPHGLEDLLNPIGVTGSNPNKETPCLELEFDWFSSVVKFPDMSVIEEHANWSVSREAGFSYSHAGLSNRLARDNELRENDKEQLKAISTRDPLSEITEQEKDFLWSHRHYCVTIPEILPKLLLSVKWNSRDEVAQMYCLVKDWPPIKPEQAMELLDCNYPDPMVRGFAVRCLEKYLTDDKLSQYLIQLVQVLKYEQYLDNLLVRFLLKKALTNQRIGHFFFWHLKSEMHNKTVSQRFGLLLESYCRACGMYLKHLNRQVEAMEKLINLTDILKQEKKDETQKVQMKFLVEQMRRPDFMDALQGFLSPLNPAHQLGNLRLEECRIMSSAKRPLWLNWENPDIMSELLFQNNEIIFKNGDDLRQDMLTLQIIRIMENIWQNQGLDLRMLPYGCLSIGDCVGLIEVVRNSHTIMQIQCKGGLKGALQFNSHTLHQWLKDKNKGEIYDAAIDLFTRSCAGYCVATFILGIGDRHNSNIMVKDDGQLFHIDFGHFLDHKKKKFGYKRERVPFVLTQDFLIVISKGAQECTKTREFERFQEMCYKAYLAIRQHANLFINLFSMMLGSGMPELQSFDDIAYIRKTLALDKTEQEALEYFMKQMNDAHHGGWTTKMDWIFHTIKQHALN
T1 sequence (P27986 whole entry partner, canonical isoform): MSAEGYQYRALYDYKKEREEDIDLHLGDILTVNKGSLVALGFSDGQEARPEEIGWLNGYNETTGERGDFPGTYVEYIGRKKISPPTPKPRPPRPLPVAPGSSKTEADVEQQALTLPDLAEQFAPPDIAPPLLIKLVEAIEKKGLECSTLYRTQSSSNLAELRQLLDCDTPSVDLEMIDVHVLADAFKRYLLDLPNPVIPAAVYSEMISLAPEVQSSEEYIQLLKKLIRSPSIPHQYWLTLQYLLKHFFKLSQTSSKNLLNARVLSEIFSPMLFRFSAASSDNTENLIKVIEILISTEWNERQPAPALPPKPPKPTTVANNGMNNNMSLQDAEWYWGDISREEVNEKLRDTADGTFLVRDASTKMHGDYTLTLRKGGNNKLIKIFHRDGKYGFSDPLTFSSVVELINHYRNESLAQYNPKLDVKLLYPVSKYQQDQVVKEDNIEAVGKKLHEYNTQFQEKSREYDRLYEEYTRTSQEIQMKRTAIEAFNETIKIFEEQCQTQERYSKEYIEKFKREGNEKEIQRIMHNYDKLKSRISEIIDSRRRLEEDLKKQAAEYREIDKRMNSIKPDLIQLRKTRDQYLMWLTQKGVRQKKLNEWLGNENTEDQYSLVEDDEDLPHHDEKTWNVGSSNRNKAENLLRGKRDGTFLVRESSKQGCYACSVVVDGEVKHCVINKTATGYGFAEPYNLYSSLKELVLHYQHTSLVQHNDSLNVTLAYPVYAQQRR

Take `NCc1cccc(C(=O)Nc2cccc(-c3nc(-c4cccc(CO)c4)cc(N4CCOCC4)n3)c2)c1` [Example 6(48), 2-[3-(3-aminomethylbenzamido)phenyl]-4-(3-hydroxymethylphenyl)-6-morpholinopyrimidine]: the IC50 is approximately 1 µM on p110α Type Ia human PI3K, approximately 1.8 µM in assay [1] and approximately 5 µM in assay [2].
Taken in the same sequence, the figures for `N[C@H]1CCC[C@@H](CC(=O)Nc2cccc(-c3nc(-c4cccc(CO)c4)cc(N4CCOCC4)n3)c2)C1` [Example 6(33), 2-(3-{2-[(1R,3S)-3-aminocyclohex-1-yl]acetamido]phenyl}-4-(3-hydroxymethylphenyl)-6-morpholinopyrimidine] were approximately 0.7 µM, approximately 5.1 µM and approximately 10 µM.
Consider `O=C(Nc1cccc(-c2nc(-c3cccc(O)c3)cc(N3CCOCC3)n2)c1)C1CCNCC1` [Example 4(3), 4-(3-hydroxyphenyl)-6-morpholino-2-(3-piperidin-4-ylcarbonylaminophenyl)pyrimidine], for which, at p110α Type Ia human PI3K, the IC50 is approximately 1 µM.

For the origin of these results see patent US20080058332A1, “2,4,6-Trisubstituted Pyrimidines as Phosphotidylinositol (Pi) 3-Kinase Inhibitors and Their Use in the Treatment of Cancer” (priority 2004, published 2008).
